Results taken from patent US20230321067A1, “DOSING REGIMEN COMPRISING 3-(1-OXOISOINDOLIN-2-YL)PIPERIDINE-2,6-DIONE DERIVATIVES” (Novartis AG, priority 2020, published 2023).

Key:
[1] = molecular target: T1, IKZF2 (Homo sapiens, UniProt Q96SW2+Q9UKS7); assay: IKZF2 degradation in vitro (FIG. 1); type: cell-based; parameters: prolabel (ProLabel enzyme-fragment tag); expressed in transfected cells; host or cells: HEK293T
Description: Although the specific transcriptional targets of IKZF2 remain to be defined, IKZF2 binds to and represses transcription from the IL-2 promoter region (Baine 2013). […] Finally, an in vitro assay recapitulating hallmarks of T cell dysfunction/exhaustion, by sequential TCR stimulation of isolated primary human T cells, was used to test the hypothesis that […] would rescue the exhausted phenotype and enhance Teff cell activity. […] In addition to IKZF1, other known cereblon substrates including translation termination factor G1 to S phase transition 1 (GSPT1) are not degraded by I-57 (FIG. 1).

[2] = In vitro metabolism in liver microsomes and hepatocytes across species; type: in vitro ADME
Description: In vivo in the dog, very minor amounts of the N-dealkylation product and products derived from hydrolysis of the glutarimide moiety were detected in plasma. While the contribution of CYP-mediated oxidative metabolism to systemic clearance is unknown, a preliminary assessment of the enzymes involved was conducted using human recombinant CYPs in vitro.

[3] = In vivo non-clinical PK profile, all species tested; parameters: species or system mouse, rat, dog and cynomolgus monkey
Description: The in vivo non-clinical PK profile of I-57 was investigated in mouse, rat, dog and cynomolgus monkey using I-57 free base. […] After p.o. administration, the absorption of I-57 was rapid with peak blood concentration (Tmax) occurring between 1 and 4 hours. […] In high dose PK and toxicology studies with I-57 the exposures in mouse, rat and monkey increased with dose.

[4] = molecular target: PXR (Homo sapiens, UniProt O75469); assay: PXR reporter gene assay (CYP3A induction potential); type: cell-based
Description: Based on a PXR reporter gene assay, I-57's induction potential for CYP3A appears to be low.

[5] = molecular target: P-gp (Homo sapiens, UniProt P08183); assay: P-gp substrate assessment; type: in vitro ADME
[6] = molecular target: T1, IKZF2; assay: IKZF2 protein levels in total tumor-infiltrating lymphocytes by immunohistochemistry, hPBMC AdT model with MDA-MB231 xenografts (FIG. 8A, 8B); type: in vivo; parameters: endogenous in cells; host or cells: primary human PBMCs; details: 24 h post the 14th daily dose
Description: FIG. 6 is a pictorial representation of the multi-dose PK/PD study design in the human PBMC adoptive transfer mouse model harboring MDA-MB231 xenografts. Fourteen consecutive daily doses of Compound I-57 was administered at 0.3 mg/kg, 1 mg/kg, 3 mg/kg or 30 mg/kg.
FIG. 8A is a bar graph showing the change in the IKZF2 protein levels in total tumor-infiltrating lymphocytes by immunohistochemistry (IHC) at 24 h post the 14th daily dose of 1, 3 or 30 mg/kg Compound I-57.

[7] = molecular target: CYP2C9 (Homo sapiens, UniProt P11712); assay: CYP inhibition: CYP2C9; type: in vitro ADME; details: I-57 concentrations of up to 100 μM
[8] = Toxicology in rats (5-day and 4-week GLP studies); type: in vivo
Description: The non-clinical safety profile of I-57 was established in vitro, and in vivo in rats and cynomolgus monkeys in studies up to 4-weeks duration. Based on the outcome of these studies, QTc interval prolongation was identified as the principal safety signal for I-57. There were other toxicities such as diarrhea and vomiting in monkeys, and mortality, clinical signs and target organ toxicities in rats; however, these occurred at exposures far above those expected to result in clinical activity.
Clinical signs, decreases in body weight and food consumption, and clinical pathology changes reflecting inflammation, renal and liver injury, and stress were generally evident in the pre-terminal animals. Kidney toxicity was evident in rats at doses >100 mg/kg/day and was characterized by increased weight, hematuria, proteinuria, with or without increased blood urea and creatinine, degeneration, regeneration and inflammation at 300 mg/kg/day.

[9] = molecular target: T2, CYP2B6 (Homo sapiens, UniProt P20813); assay: Time-dependent CYP inhibition: CYP2B6; type: in vitro ADME; details: I-57 concentrations of up to 100 μM
[10] = molecular target: T2, CYP2B6; assay: CYP inhibition: CYP2B6; type: in vitro ADME; details: I-57 concentrations of up to 100 μM
[11] = molecular target: T3, IKZF2 (Oryctolagus cuniculus, UniProt A0A5F9CPW0); assay: Degradation of IKZF2 in primary PBMCs, rabbit (FIG. 3); type: cell-based
T3 construct: endogenous in cells; host or cells: primary rabbit PBMCs
Description: FIG. 3. is a bar graph showing the degradation of IKZF2 in primary PBMCs obtained from rabbit, dog, pig, cynomolgus monkey and human, and in primary splenocytes of mouse and rat and treated with Compound I-57.

[12] = test system: plasma protein; assay: Plasma protein binding in vitro, mouse; type: in vitro ADME
Description: The binding to plasma protein of I-57 in vitro was moderate in all species, with an observed difference between rodents (73% in mouse, 76% in rat) and non-rodents (52% in dog and monkey, 54% in human). Blood-to-plasma ratios were in the range of 0.7-1.8 (human 1.1-1.3). […] Based on results with non-radiolabeled I-57 in the dog, a significant amount of unchanged I-57 was renally eliminated (˜20% of dose).

[13] = test system: CYP3A; assay: Time-dependent CYP inhibition: CYP3A; type: in vitro ADME; details: I-57 concentrations of up to 100 μM
[14] = molecular target: T1, IKZF2; assay: Degradation of prolabel-tagged IKZF2 in HEK293T cells (FIG. 1); type: cell-based; parameters: prolabel (ProLabel enzyme-fragment tag); expressed in transfected cells; host or cells: HEK293T; details: HEK293T cells overexpressing prolabel-tagged target proteins, various concentrations
Description: FIG. 1. is a graph showing the selectivity of Compound I-57 for the degradation of IKZF2 over the other IKAROS family members, IKZF1, IKZF4, and GSPT1 at various concentrations in HEK293T cells overexpressing prolabel-tagged target proteins.

[15] = i.v. administration, all species tested, I-57 free base

T1 sequence (Q9UKS7 whole entry, the tested form may be a part): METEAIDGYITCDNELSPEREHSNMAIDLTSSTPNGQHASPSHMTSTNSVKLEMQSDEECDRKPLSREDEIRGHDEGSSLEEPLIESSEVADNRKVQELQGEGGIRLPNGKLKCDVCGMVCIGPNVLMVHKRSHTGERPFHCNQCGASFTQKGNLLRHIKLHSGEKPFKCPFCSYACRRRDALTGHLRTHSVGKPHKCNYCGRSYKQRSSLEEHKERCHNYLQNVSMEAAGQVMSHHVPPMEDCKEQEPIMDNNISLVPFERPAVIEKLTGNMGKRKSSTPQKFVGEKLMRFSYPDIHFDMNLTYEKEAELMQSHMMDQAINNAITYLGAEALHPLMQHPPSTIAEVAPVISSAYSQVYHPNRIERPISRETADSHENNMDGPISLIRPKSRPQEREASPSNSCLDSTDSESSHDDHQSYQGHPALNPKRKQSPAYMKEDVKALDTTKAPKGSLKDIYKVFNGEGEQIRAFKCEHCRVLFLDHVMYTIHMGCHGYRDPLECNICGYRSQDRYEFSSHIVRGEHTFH
T1 sequence (Q96SW2 whole entry, the tested form may be a part): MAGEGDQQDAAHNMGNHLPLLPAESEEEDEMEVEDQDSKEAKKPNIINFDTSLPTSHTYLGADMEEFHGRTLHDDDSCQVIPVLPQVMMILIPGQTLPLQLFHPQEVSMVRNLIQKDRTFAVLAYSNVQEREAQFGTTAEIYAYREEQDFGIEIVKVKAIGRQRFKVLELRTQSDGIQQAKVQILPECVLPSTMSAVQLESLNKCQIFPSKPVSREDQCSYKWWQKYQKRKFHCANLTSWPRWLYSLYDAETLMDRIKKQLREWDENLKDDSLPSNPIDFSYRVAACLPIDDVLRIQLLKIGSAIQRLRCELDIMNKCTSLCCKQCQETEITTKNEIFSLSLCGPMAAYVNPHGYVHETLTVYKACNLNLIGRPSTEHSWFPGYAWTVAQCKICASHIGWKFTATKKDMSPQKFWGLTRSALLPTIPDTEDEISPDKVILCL
T1 sequence (Q16531 whole entry partner, the tested form may be a part): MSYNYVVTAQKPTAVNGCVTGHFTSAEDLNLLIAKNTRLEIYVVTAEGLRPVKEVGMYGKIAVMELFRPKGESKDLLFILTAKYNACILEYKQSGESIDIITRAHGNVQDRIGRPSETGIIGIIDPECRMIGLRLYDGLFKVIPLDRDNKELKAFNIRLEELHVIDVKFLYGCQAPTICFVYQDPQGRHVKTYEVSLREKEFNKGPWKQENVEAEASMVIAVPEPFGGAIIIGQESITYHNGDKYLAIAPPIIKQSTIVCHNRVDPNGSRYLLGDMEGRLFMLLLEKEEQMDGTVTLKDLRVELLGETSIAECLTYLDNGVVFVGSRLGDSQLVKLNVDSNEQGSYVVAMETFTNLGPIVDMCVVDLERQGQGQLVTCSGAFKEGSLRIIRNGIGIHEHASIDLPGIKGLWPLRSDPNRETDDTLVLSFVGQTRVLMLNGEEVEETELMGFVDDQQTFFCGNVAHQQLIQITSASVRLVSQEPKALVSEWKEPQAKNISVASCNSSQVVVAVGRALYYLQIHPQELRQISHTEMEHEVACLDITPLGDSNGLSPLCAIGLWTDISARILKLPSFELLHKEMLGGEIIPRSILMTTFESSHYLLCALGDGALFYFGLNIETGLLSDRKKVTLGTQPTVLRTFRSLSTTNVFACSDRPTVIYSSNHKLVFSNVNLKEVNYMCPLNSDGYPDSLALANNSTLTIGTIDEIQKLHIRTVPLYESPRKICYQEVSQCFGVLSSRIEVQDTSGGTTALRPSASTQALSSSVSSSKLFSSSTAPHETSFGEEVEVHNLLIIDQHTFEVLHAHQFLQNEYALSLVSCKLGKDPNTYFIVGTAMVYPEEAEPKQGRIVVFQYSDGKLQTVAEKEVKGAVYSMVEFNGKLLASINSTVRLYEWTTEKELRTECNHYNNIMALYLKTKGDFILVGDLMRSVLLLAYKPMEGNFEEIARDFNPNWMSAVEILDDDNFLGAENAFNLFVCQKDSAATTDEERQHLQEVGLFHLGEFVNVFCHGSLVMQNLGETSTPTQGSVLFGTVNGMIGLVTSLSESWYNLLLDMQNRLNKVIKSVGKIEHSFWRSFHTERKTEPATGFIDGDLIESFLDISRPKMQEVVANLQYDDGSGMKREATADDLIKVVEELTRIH
T2 sequence (P20813 whole entry): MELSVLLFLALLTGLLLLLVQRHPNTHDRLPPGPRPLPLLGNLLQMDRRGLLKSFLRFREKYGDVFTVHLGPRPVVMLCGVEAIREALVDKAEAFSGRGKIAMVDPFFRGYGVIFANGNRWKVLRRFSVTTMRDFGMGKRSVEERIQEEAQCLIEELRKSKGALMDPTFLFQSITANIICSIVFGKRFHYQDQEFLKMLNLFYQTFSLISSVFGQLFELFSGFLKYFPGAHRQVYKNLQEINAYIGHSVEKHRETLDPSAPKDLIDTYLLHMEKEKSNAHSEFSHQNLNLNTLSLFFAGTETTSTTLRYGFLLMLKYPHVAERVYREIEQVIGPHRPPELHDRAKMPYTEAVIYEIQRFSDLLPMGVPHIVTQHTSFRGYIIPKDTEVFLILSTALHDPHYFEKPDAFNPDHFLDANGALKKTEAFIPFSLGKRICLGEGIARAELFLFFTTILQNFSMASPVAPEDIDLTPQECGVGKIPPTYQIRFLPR
Chain of CYP2C9 (P11712 whole entry): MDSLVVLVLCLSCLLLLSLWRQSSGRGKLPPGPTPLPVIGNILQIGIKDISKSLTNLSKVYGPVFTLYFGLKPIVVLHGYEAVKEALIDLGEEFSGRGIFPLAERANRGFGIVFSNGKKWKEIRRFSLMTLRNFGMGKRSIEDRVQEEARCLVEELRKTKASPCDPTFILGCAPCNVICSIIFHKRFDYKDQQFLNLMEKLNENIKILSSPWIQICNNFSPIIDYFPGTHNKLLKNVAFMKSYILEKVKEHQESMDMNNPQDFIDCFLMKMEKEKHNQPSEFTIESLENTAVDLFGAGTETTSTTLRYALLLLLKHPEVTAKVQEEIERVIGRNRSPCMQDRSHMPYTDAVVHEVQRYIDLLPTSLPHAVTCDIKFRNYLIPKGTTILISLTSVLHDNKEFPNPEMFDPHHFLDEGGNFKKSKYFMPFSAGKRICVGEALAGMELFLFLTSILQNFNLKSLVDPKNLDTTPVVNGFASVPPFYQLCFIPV
Chain of P-gp (P08183 whole entry): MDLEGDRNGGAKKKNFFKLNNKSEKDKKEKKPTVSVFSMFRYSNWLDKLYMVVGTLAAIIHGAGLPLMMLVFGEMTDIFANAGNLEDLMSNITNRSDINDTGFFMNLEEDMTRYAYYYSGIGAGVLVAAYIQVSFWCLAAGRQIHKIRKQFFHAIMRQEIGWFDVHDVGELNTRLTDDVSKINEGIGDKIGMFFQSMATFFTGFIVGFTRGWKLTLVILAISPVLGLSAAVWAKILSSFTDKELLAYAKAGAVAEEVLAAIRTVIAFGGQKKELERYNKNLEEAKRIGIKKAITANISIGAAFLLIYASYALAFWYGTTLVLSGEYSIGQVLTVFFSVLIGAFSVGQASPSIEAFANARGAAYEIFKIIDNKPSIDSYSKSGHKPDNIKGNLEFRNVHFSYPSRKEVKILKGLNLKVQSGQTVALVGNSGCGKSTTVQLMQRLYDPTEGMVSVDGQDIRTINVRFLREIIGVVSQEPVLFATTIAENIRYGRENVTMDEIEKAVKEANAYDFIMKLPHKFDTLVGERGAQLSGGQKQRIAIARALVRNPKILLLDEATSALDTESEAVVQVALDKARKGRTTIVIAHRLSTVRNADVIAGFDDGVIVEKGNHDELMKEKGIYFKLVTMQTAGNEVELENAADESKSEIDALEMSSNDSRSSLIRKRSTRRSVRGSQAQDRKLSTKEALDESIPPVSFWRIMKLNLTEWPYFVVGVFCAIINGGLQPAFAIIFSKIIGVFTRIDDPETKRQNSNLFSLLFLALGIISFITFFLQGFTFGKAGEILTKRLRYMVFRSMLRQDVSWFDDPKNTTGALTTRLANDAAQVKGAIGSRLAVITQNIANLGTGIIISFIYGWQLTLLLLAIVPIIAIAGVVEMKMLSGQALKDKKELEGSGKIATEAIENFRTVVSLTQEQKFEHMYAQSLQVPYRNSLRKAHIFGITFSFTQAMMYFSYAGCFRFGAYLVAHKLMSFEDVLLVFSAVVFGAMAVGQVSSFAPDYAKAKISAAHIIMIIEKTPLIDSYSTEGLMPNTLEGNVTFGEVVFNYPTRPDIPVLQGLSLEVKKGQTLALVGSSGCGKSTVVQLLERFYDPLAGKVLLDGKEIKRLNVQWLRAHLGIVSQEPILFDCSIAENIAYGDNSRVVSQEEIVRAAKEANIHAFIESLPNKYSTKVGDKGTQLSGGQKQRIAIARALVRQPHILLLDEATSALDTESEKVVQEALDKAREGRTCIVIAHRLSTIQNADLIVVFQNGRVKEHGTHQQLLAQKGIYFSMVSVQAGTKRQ
Chain of PXR (O75469 whole entry): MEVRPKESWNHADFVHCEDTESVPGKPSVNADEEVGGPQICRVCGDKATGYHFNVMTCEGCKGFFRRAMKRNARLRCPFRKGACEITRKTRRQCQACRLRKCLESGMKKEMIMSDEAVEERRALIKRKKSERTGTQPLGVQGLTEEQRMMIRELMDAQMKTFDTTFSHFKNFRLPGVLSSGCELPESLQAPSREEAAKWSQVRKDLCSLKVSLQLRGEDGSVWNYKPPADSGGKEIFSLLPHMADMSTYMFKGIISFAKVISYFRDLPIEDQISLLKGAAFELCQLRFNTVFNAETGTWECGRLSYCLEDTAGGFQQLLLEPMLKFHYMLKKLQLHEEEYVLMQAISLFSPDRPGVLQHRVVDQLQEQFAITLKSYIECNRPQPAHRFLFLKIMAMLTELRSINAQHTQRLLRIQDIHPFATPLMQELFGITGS
T3 sequence (A0A5F9CPW0 1-526): as the sequence (Q9UKS7 whole entry, the tested form may be a part) above, with E68D, M234V, I266M, A373S, H423N, A449V counted along it

O=C1CCC(N2Cc3cc(C4CCN(Cc5ccccc5)CC4)ccc3C2=O)C(=O)N1 (centres unmarked) [Compound I-57, 3-(5-(1-benzylpiperidin-4-yl)-1-oxoisoindolin-2-yl)piperidine-2,6-dione]
degradation of IKZF2 [1]: potent and selective degrader of IKZF2 | metabolic stability [2]: very stable and no appreciable metabolic turnover was observed | blood clearance (CL) [3, 15]: low to moderate | terminal half-life (T½) [3, 15]: moderate | volume of distribution (Vss) [3, 15]: moderate to high | Tmax ([3]; mouse, rat, dog, cynomolgus monkey, blood, po, p.o. administration, read-out: peak blood concentration (Tmax)): 1 to 4 h | induction potential for CYP3A [4]: low | P-gp substrate status [5]: P-gp substrate | maximal level of IKZF2 degradation in total tumor-infiltrating lymphocytes (IHC) ([6]; 30 mg/kg): approximately 85% | reduction in IKZF2 levels in total tumor-infiltrating lymphocytes (IHC) ([6]; 1, 3 and 30 mg/kg doses): Robust reduction | inhibition of CYP2C9 [7]: very little and no inhibition | reversibility of findings ([8]; rat, in vivo): fully reversed or showed ongoing recovery | stomach findings ([8]; rat, in vivo, 300 mg/kg/day): mucosal hyperplasia, inflammation and degeneration in the stomach | urinary bladder findings ([8]; rat, in vivo, 300 mg/kg/day): Degenerative changes were present in the urinary bladder | dose at which kidney toxicity was evident ([8]; rats): > 100 mg/kg/day | dose at which mortality occurred ([8]; rats, females): > 300 mg/kg/day | dose at which mortality occurred ([8]; rats, males): 1000 mg/kg | time-dependent inhibition of CYP2B6 [9]: no apparent time-dependent inhibition | inhibition of CYP2B6 [10]: very little and no inhibition | degradation of IKZF2 [11]: degradation was observed | binding to plasma protein [12]: 73% | time-dependent inhibition of CYP3A [13]: no apparent time-dependent inhibition | degradation of IKZF2 and selectivity over IKZF1, IKZF4 and GSPT1 [14]: potent and specific degrader of IKZF2
